We go through 7 molecules from article PMC5034817 (Journal of Neurochemistry, 2015).

“And” between values parts separate entries of the source, which are not always exact repeats. Equal values may be shown once. “Also recorded” adds a separate entry of the source.

B2: His6RGS4 (recombinant regulator of G protein signaling 4) (natural protein, UniProt P49799 1-205, looked up)
chain: MCKGLAGLPASCLRSAKDMKHRLGFLLQKSDSCEHSSSHSKKDKVVTCQRVSQEEVKKWAESLENLINHECGLAAFKAFLKSEYSEENIDFWISCEEYKKIKSPSKLSPKAKKIYNEFISVQATKEVNLDSCTREETSRNMLEPTITCFDEAQKKIFNLMEKDSYRRFLKSRFYLDLTNPSSCGAEKQKGAKSSADCTSLVPQCA

The target in assay [1] is rat mu opioid receptor (MOR)/G protein complex (Rattus norvegicus, UniProt P33535+P59215). The assay is described as follows: Co-immunoprecipitation of Goα and RGS4 with solubilized MOR. The class given is biochemical. To be noted: for amount of RGS4 co-immunoprecipitated with MOR: 1 μM DAMGO, 0.3 μM RGS4.
Chain of rat mu opioid receptor (MOR)/G protein complex (P33535 whole entry, one chain of several): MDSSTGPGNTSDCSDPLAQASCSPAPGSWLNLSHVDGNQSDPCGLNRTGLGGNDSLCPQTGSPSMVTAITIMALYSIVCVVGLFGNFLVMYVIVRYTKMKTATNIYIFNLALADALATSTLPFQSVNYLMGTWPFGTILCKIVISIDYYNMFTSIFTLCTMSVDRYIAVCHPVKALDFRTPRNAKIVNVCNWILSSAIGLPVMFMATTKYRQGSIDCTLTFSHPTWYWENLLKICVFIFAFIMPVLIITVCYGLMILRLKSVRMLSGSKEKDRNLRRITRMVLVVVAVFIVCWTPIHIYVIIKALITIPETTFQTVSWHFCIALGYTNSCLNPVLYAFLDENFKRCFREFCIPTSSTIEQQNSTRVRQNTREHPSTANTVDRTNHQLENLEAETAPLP
For assay [2], the target named is Goα (Rattus norvegicus, UniProt P59215). The assay can be described thus: His6RGS4/Ni2+-NTA agarose pull-down of Goα from solubilized rat brain membranes. The class given is biochemical. The note with it: for effect on association of Goα with His6RGS4: 100 μM GDP or 10 μM GTP alone.
For assay [3], the system named is RGS4 mRNA levels in the locus coeruleus. The note with it: 6 days of chronic morphine administration; ref Gold et al. 2003; cited from earlier work.
For assay [4], the target named is MOR/G protein complex (Rattus norvegicus, UniProt P33535). The assay can be described thus: Co-immunoprecipitation of Goα with MOR using anti-MOR349-398. The class given is biochemical. To be noted: 1 µM DAMGO; IP with anti-MOR349-398; Figure S2c.
Chain of MOR/G protein complex (P33535 whole entry, one chain of several): as above
Assay [5] concerns the target mu opioid receptor (Homo sapiens, UniProt P35372). The assay can be described thus: biochemical.
Assay [6] concerns the target MOR (Homo sapiens, UniProt P35372). It counts as biochemical. To be noted: presence of 1 μM RGS4.
The target in assay [7] is B2. The assay is described as follows: pull-down.
The target in assay [8] is mu opioid receptor (MOR), endogenous rat brain (rat, UniProt P33535 1-398). The assay can be described thus: co-IP.
Chain of mu opioid receptor (MOR), endogenous rat brain (P33535 whole entry): as the sequence (P33535 whole entry, one chain of several) above
In assay [9] the test system is Go/Gi-type G proteins. The class given is biochemical, human. The note with it: RGS4 added.

Chain of mu opioid receptor (P35372 whole entry): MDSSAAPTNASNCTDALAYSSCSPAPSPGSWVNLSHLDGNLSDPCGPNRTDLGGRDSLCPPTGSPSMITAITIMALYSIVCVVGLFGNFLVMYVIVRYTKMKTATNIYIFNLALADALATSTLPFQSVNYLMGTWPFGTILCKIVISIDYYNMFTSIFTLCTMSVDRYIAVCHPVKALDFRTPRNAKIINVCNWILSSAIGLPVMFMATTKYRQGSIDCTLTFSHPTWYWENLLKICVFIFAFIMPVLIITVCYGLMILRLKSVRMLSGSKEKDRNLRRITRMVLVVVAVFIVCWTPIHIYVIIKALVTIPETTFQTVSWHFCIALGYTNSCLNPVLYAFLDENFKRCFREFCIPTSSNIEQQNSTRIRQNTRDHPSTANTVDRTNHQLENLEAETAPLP
Chain of MOR (P35372 whole entry): as above

For `Nc1nc2c(ncn2[C@@H]2O[C@H](COP(=O)(O)OP(=O)(O)OP(=O)(O)O)[C@@H](O)[C@H]2O)c(=O)[nH]1` [GTP], the “effect on amount of Goα associated with MOR” value in [1] (10 μM GTP added to DAMGO vs DAMGO alone) is “did not alter”. Besides, the “additional increase in RGS4 co-immunoprecipitating with MOR” value in assay [1] (10 μM GTP with 1 μM DAMGO vs DAMGO alone) was 72% and 71.6%. Moreover, the “effect on association of Goα with His6RGS4” value in assay [2] is reported as “failed to affect; also recorded: Neither 100 μM GDP nor 10 μM GTP affected; also recorded: neither GTP nor GDP had an effect”.

`CN1CC[C@]23c4c5ccc(O)c4O[C@H]2[C@@H](O)C=C[C@H]3[C@H]1C5` [morphine]: the “RGS4 mRNA levels in the locus coeruleus” value in assay [3] was “doubled”.

For the molecule `Nc1nc2c(ncn2[C@@H]2O[C@H](COP(=O)(O)OP(=O)(O)O)[C@@H](O)[C@H]2O)c(=O)[nH]1` [GDP], the “effect on association of Goα with His6RGS4” value in assay [2] is recorded as “failed to affect; also recorded: Neither 100 μM GDP nor 10 μM GTP affected; also recorded: neither GTP nor GDP had an effect”. Also, in assay [2] (100 μM GDP with 0.3 μM GTPγS), the “effect on GTPγS-enhanced Goα binding to RGS4” value was “blocked this effect; also recorded: prevented; also recorded: return to the control level”.

One may read the inhibition as the relative decrease from the control value, in per cent. Regarding `C[C@@H](NC(=O)[C@@H](N)Cc1ccc(O)cc1)C(=O)NCC(=O)N(C)[C@@H](Cc1ccccc1)C(=O)NCCO` [DAMGO, [D‐Ala^2, N‐Me‐Phe^4, Gly^5‐ol] enkephalin], the “increase in RGS4 co-immunoprecipitating with MOR” value in [1] (DAMGO during immunoprecipitation vs no addition) was 50% and 53%. Further, the “increase in Goα co-immunoprecipitating with MOR” value in assay [4] is reported as approximately 2 fold. Further, in assay [5], the “inhibition of forskolin-stimulated adenylyl cyclase activity” value is reported as 21.8% ± 2.27; the “maximal inhibition, adenylyl cyclase activity reduced to” value is 3.28 pmoles cAMP formed in 10 min and 3.92 pmoles cAMP formed in 10 min. For the same molecule, the inhibition at 1 µM in assay [5] (read-out: inhibition of adenylyl cyclase activity) stood at 60.4 ± 2.97%. For the same molecule, the “maximal amount of [35S]GTPγS bound (Bmax)” value in assay [6] is listed as 1319 ± 82 dpm. In addition, the “effect on binding of Goα to RGS4” value in [2] (1 μM DAMGO alone, without guanine nucleotide) is recorded as “did not affect”. For the same molecule, in assay [2] (DAMGO with 100 μM GDP and 0.3 μM GTPγS), the “Goα molecules whose affinity for GDP is decreased by MOR activation” value was 40–50%.

B1: Goα, endogenous rat brain (natural protein, rat (endogenous in rat brain), UniProt P59215 1-354, looked up)
chain: MGCTLSAEERAALERSKAIEKNLKEDGISAAKDVKLLLLGAGESGKSTIVKQMKIIHEDGFSGEDVKQYKPVVYSNTIQSLAAIVRAMDTLGVEYGDKERKADSKMVCDVVSRMEDTEPFSAELLSAMMRLWGDSGIQECFNRSREYQLNDSAKYYLDSLDRIGAADYQPTEQDILRTRVKTTGIVETHFTFKNLHFRLFDVGGQRSERKKWIHCFEDVTAIIFCVALSGYDQVLHEDETTNRMHESLMLFDSICNNKFFIDTSIILFLNKKDLFGEKIKKSPLTICFPEYPGSNTYEDAAAYIQTQFESKNRSPNKEIYCHMTCATDTNNIQVVFDAVTDIIIANNLRGCGLY
Take B1: in [7], the “fold increase of Goα bound to His6RGS4 with 0.3 uM GTPγS against control” value was approximately 3 fold.

As usually defined, the stoichiometry N is a count of units in the complex or per binding partner. Take B2: the “stoichiometry N” value in assay [8] was approximately 1.

B3: RGS4: recombinant regulator of G protein signaling 4, His6-tagged, expressed in JM109 E. coli (protein)
chain: MCKGLAGLPASCLRSAKDMKHRLGFLLQKSDSCEHSSSHSKKDKVVTCQRVSQEEVKKWAESLENLINHECGLAAFKAFLKSEYSEENIDFWISCEEYKKIKSPSKLSPKAKKIYNEFISVQATKEVNLDSCTREETSRNMLEPTITCFDEAQKKIFNLMEKDSYRRFLKSRFYLDLTNPSSCGAEKQKGAKSSADCTSLVPQCA
modifications: left off: His6, end not stated, kept
For the molecule B3, the “amount of RGS4 co-immunoprecipitated with MOR” value is 9 ± 1.1 fmol in assay [1] (absence of GTPγS); 28 fmol and 28.4 ± 5.4 fmol in assay [1] (presence of 1 μM GTPγS). Further, in [1] (presence of GTPγS), the “ratio of MOR to RGS4 in the immunoprecipitate” value is on record as 1–1. The “effect on GTPγS-mediated inhibition of adenylyl cyclase activity” value in assay [9] is given as “failed to attenuate; also recorded: failed to affect; also recorded: had no effect”.
